One data set concerns the target T1, human PDE4D (Homo sapiens, UniProt Q08499).
T1 construct: PDE4 cDNA constructs containing the coding regions of the three isoenzymes; made in house; host or cells: Sf21 (Spodoptera frugiperda) insect cells, baculovirus (Bac-To-Bac)
The data set can be described thus: PDE4 Isoenzyme Inhibition Assay (Scintillation Proximity Assay, [3H]-cAMP). The format is biochemical. The note with it: recombinant 6His-tagged human PDE4D3 expressed in Sf21 cells; 1 μM cAMP; 1% DMSO; room temperature. (In a scintillation proximity assay essentially only radioactivity close to the scintillant gives light.)

One may read the melting point as the temperature, or range, at which the solid turns liquid. What is called IC50 is the concentration at which inhibition is half-maximal.

Where a name gives a salt, the structure may show the parent alone.

T1 sequence (Q08499 1-673 isoform Q08499-2): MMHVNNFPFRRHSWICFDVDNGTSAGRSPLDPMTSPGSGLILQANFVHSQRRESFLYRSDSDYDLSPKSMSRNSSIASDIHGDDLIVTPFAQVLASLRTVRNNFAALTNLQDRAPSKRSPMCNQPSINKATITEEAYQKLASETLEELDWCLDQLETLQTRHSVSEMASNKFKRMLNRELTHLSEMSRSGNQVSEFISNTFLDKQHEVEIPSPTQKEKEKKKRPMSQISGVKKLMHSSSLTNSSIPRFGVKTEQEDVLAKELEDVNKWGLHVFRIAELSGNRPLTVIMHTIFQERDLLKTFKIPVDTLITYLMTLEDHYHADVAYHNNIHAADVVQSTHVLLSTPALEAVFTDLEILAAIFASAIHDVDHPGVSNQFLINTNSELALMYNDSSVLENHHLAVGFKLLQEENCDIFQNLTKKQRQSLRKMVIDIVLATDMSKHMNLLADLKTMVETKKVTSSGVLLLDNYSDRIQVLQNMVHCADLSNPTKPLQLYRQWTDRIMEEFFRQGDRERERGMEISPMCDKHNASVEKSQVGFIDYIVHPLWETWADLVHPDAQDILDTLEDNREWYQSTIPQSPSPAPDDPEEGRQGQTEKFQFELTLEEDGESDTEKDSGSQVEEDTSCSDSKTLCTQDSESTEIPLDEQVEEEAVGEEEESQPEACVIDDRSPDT
Protocol for human PDE4D: PDE4 Expression: Sf21 cells are grown to a density of 2×10^6 cells/ml and infected with human PDE4A, PDE4B or PDE4D3 containing baculovirus to a multiplicity of infection (m.o.i.) of 1 for 72 hours. The infected cells are harvested by centrifugation at 1,400 g for 4 minutes at 4° C. and the cell pellets are frozen at −80° C. Sf21 (Spodoptera frugiperda 21) insect cells are routinely maintained at densities between 3×105 and 3×10^6 cells/ml in SF00 Serum Free Medium (Invitorgen Life Technologies). Sf21 cells (1×109) are resuspended in 100 ml cold (4° C.) Lysis Buffer (50 mM Na2HP04, 200 mM NaCl, 10 mM Imidazole). Cells are incubated on ice for 30 minutes then centrifuged at 15,000 g for 20 minutes at 4° C.
PDE4 Purification: The 6 Histidine-tagged PDE4 proteins are isolated from crude cell lysates by a batch-wise Ni-NTA purification strategy (QIAGEN). N-NTA resin is first pre-rinsed to remove ethanol preservative and equilibrated with Lysis Buffer. Cell lysate is added, (10 ml 50% Ni-NTA slurry resin per 50 ml lysate), and gently rotated on a mixer at 4° C. for 1-2 h. The sample is then centrifuged at 1,000 g for 5 minutes at 4° C. using Denley benchtop centrifuge. The supernatant is removed and the resin is washed 3 times with 50 ml ice cold Wash Buffer (50 mM Na2HP04, 300 mM NaCl and 20 mM imidazole) followed by centrifugation at 1,000 g for 5 minutes at 4° C. The 6His-tagged protein is eluted from the resin with 3×5 ml ice cold Elution Buffer (50 mM NaH2PO4, 300 mM NaCl, 250 mM imidazole) and collected by centrifugation at 1,000 g for 5 minutes at 4° C. The supernatants are then pooled before buffer exchange and concentration using a VivaScience 20 ml 5K 0.2 μM Concentrator. Samples are aliquoted and stored at −20° C.
PDE4 Assay: The assay is based on Amersham Pharmacia Biotech Scintillation Proximity Assay (SPA) technology. Enzyme is diluted with enzyme dilution buffer (10 mM Tris-HCl, pH 7.5 containing 1 mM EDTA) in order to obtain between 10-30% total substrate hydrolysis during the assay. The enzymatic reaction is started by adding 10 μl diluted enzyme to 80 μl substrate (0.1 μCi [3H]-cAMP, 1 μM cAMP) and 10 μl inhibitor solution in a 96-well microtiter plate. After 30-60 minutes incubation at room temperature the reaction is stopped by adding 50 μl PDE SPA beads (20 mg/ml). After 30 minutes the plate is centrifuged (3000 g, 10 minutes) and counted (Packard TopCount).
The concentration of DMSO is kept constant at 1% (v/v) throughout the assay. The concentration at which 50% inhibition occurs (IC50) is determined from inhibition—concentration curves in a conventional manner.

For the compound `N#Cc1cccc(-c2nc(N3CCNCC3)cc3cccnc23)c1` (as salt: hydrochloride) [Example 4, 3-(6-Piperazin-1-yl-[1,7]naphthyridin-8-yl)-benzonitrile], the melting point is more than 250 °C.

As for `O=C(O)C1CCN(c2cc3cccnc3c(-c3ccc(F)c(Cl)c3)n2)CC1` [Example 39], the IC50 at human PDE4D is 8 nM.

On to `N#Cc1cccc(-c2nc(N3CCOCC3)cc3cccnc23)c1` [Example 12], for which, on human PDE4D, the IC50 turned out to be 2.5 nM.

For `CN1CCN(c2cc3cccnc3c(-c3cccc(C#N)c3)n2)CC1` [Example 15], on human PDE4D, the IC50 worked out at 10.4 nM.

In turn, `N#Cc1cccc(-c2nc(N3CCC(O)C3)cc3cccnc23)c1` (centres unmarked) [Example 1, 3-[6-(3-Hydroxy-pyrrolidin-1-yl)-[1,7]naphthyridin-8-yl]-benzonitrile] yielded a melting point of 132 to 133 °C. On human PDE4D, the IC50 is 1 nM.

As for `N#Cc1cccc(-c2nc(N3CCC(C(=O)[O-])CC3)cc3cccnc23)c1.[Li+]` [Example 3, 1-[8-(3-Cyano-phenyl)-[1,7]naphthyridin-6-yl]-piperidine-4-carboxylic acid, Lithium salt], the melting point is more than 200 °C. Moreover, at human PDE4D, the IC50 is 3.1 nM.

The values are drawn from patent publication US7468370B2, “[1,7]naphthyridines as PDE4 inhibitors” (Novartis AG, priority 2002, dated 2008).
